The text below walks through data of patent publication US20150259295A1, “SUBSTITUTED PYRAZOLE COMPOUNDS AS LPAR ANTAGONISTS” (Hoffmann-La Roche Inc., priority 2012, published 2015).

Bounds are passed on as bounds.

The target of assay [1] is human recombinant LPA1 Lysophospholipid receptor (Homo sapiens, UniProt Q92633). In words: Calcium flux assay using FLIPR, LPA1R antagonist activity. It is filed as cell-based. To be noted: for IC50: ChemiScreen calcium-optimized stable cell line, FLIPR calcium flux, antagonist mode. Here is the method:
(§1) Calcium Flux Assay Using Fluorometric Imaging Plate Reader (FLIPR)
Cell Culture Conditions: The ChemiScreen Calcium-optimized stable cell line containing the human recombinant LPA1 Lysophospholipid receptor was purchased from Chemicon International, Inc./Millipore. The cells were cultured in DMEM-high glucose supplemented with 10% fetal bovine serum, 2 mM glutamine, 100 U/mL penicillin/100 μg/mL streptomycin, 1× non-essential amino acids, 10 mM HEPES and 0.25 mg/mL Geneticin. Cells were harvested with trypsin-EDTA and counted using ViaCount reagent. The cell suspension volume was adjusted to 2.0×10^5 cells/mL with complete growth media. Aliquots of 50 μL were dispensed into 384 well black/clear tissue culture treated plates (BD) and the microplates were placed in a 37° C. incubator overnight. The following day plates were used in the assay.
Dye Loading and Assay: Loading Buffer (FLIPR Calcium-4, Molecular Devices) was prepared by dissolving the contents of one bottle into 100 mL Hank's Balanced Salt Solution containing 20 mM HEPES and 2.5 mM probenecid. Plates were loaded onto Biotek plate washer and growth media was removed and replaced with 20 µL of Hank's Balanced Salt Solution containing 20 mM HEPES and 2.5 mM probenecid, followed by 25 μL of Loading Buffer. The plates were then incubated for 30 minutes at 37° C.
During the incubation, test compounds were prepared by adding 90 μL of HBSS/20 mM HEPES/0.1% BSA buffer to 2 μL of serially diluted compounds. To prepare serial dilutions, 10 mM stocks of compounds were prepared in 100% DMSO. The compound dilution plate was set up as follows: well #1 received 29 μL of stock compound and 31 μL DMSO; wells 2-10 received 40 μL of DMSO; mixed and transferred 20 μL of solution from well #1 into well #2; continued with 1:3 serial dilutions out 10 steps; transferred 2 μL of diluted compound into duplicate wells of 384 well “assay plate” and then added the 90 μL of buffer.
(§2) After incubation, both the cell and “assay” plates were brought to the FLIPR and 20 μL of the diluted compounds were transferred to the cell plates by the FLIPR. Compound addition was monitored by FLIPR to detect any agonist activity of the compounds. Plates were then incubated for 30 minutes at room temperature protected from light. After the incubation, plates were returned to the FLIPR and 20 μL of 4.5× concentrated agonist was added to the cell plates. During the assay, fluorescence readings were taken simultaneously from all 384 wells of the cell plate every 1.5 seconds. Five readings were taken to establish a stable baseline, then 20 μL of sample was rapidly (30 μL/sec) and simultaneously added to each well of the cell plate. The fluorescence was continuously monitored before, during and after sample addition for a total elapsed time of 100 seconds. Responses (increase in peak fluorescence) in each well following agonist addition was determined. The initial fluorescence reading from each well, prior to ligand stimulation, was used as zero baseline value for the data from that well. The responses were expressed as % inhibition of the buffer control.

The target of assay [2] is T1, LPA3R (Homo sapiens, UniProt Q9UBY5).
T1 sequence (Q9UBY5 1-353): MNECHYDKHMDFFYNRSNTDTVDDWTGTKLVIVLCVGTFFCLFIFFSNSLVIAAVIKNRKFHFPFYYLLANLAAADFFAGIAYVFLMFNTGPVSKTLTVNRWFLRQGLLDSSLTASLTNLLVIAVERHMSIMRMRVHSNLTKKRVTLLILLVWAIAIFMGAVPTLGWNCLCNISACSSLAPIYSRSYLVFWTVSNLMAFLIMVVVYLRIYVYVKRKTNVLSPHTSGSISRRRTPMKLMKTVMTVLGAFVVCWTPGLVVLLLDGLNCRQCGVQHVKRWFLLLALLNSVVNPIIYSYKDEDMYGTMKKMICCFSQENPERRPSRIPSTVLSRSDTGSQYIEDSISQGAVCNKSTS
The assay is described as follows: LPA3R antagonist activity (Table 1, calcium flux FLIPR). Type of assay: cell-based. The procedure: as §1, §2
(In general: Calcium flux is commonly read through the fluorescence of an indicator in the cells.)

Chain of human recombinant LPA1 Lysophospholipid receptor (Q92633 whole entry): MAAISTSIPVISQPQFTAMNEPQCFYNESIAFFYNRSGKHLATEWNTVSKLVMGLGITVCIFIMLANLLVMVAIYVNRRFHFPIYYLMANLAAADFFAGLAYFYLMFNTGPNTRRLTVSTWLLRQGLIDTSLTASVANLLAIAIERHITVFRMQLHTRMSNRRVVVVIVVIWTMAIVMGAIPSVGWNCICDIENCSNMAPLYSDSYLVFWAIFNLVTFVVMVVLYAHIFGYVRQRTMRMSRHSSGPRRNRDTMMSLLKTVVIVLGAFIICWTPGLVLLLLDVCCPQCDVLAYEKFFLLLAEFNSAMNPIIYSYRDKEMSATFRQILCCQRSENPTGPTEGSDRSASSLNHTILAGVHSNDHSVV

As usually defined, the inhibition is the change of the read-out against control, counted positive when it falls. For orientation: IC50 means the point on the concentration scale where inhibition reaches its midpoint. As to `CC(OC(=O)Nc1c(-c2ccccc2F)cnn1C)c1cccc(C(F)(F)F)c1` (racemic) [Example 12, [4-(2-Fluoro-phenyl)-2-methyl-2H-pyrazol-3-yl]-carbamic acid 1-(3-trifluoromethyl-phenyl)-ethyl ester], in assay [1] (@ 30 μM), the inhibition at 30 µM turned out to be 50.5%. The IC50 in assay [1] is 24.6 µM; in assay [2], > 30 µM.

For `CC(OC(=O)Nc1c(-c2ccccc2F)cnn1C)c1ccccc1Cl` (racemic) [Example 13, [4-(2-Fluoro-phenyl)-2-methyl-2H-pyrazol-3-yl]-carbamic acid 1-(2-chloro-phenyl)-ethyl ester], the IC50 in assay [1] is 1.4 µM; in assay [2], > 30 µM.

With `C[C@@H](OC(=O)Nc1c(-c2ccc(C3(C(=O)O)CC3)cc2)cnn1C)c1ccccc1` [Example 9, 1-{4-[1-Methyl-5-((R)-1-phenyl-ethoxycarbonylamino)-1H-pyrazol-4-yl]-phenyl}-cyclopropanecarboxylic acid], the 50% inhibitory concentration (IC50) in assay [1] and in assay [2] was > 30 µM throughout.

On to `CC(OC(=O)Nc1c(-c2ccc(-c3ccc(C4(C(=O)O)CC4)cc3)cc2)cnn1C)c1ccc(F)cc1` (stereo not drawn) [Example 18, 1-{4′-[5-((1-(4-fluorophenyl)ethoxy)carbonylamino)-1-methyl-1H-pyrazol-4-yl]-biphenyl-4-yl}-cyclopropanecarboxylic acid], for which the IC50 in assay [1] came to 0.057 µM; in assay [2] it was 8.26 µM.
